Reference: publication PMC10043345, “Discovery of BAR502, as potent steroidal antagonist of leukemia inhibitory factor receptor for the treatment of pancreatic adenocarcinoma” (Frontiers in Oncology, 2023)

How the values were obtained:
MIA PaCa-2 cells = test: Scratch wound healing assay; type: cell-based, human; conditions: BAR502 10 µM + LIF 10 ng/mL; 0, 24, 48 h
Procedure: MIA PaCa-2 cells were seeded in DMEM complete medium at […] cells/well into 24-well plate and used at 70-80% confluence rate. The assay was performed as previously described ([20]), particularly on the day 1, the cell monolayers were gently scraped vertically with a new 0.2 mL pipette tip across the centre of the well. After scratching, the well was gently washed twice with PBS (Euroclone, Milan, Italy) to remove the detached cells and cell debris and finally fresh medium containing LIF (10 ng/mL) alone or in combination with BAR502 (10 µM) or EC359 (25 nM) was added into each well. Immediately after scratch creation, the 24-plate was placed under a phase-contrast microscope and the first image of the scratch acquired (T0) with using a OPTIKAM Pro Cool 5 – 4083.CL5 camera. Cells were grown for additional 48 h and images taken at 24h (T1) and 48 h (T2). The gap distance between scarps borders was quantified by assessing that area between the two margins of the scratches. All experiments were performed in triplicate.

hLIFR = target: T1, hLIFR (Homo sapiens, UniProt P42702); test: STAT3 transactivation in HepG2 cells transfected with hLIFR and CD130, stimulated with LIF; type: cell-based; conditions: LIF 10 ng/mL, read-out: HepG2 LIFR Antagonism IC50 (STAT3 transactivation)
T1 sequence (P42702 45-1097): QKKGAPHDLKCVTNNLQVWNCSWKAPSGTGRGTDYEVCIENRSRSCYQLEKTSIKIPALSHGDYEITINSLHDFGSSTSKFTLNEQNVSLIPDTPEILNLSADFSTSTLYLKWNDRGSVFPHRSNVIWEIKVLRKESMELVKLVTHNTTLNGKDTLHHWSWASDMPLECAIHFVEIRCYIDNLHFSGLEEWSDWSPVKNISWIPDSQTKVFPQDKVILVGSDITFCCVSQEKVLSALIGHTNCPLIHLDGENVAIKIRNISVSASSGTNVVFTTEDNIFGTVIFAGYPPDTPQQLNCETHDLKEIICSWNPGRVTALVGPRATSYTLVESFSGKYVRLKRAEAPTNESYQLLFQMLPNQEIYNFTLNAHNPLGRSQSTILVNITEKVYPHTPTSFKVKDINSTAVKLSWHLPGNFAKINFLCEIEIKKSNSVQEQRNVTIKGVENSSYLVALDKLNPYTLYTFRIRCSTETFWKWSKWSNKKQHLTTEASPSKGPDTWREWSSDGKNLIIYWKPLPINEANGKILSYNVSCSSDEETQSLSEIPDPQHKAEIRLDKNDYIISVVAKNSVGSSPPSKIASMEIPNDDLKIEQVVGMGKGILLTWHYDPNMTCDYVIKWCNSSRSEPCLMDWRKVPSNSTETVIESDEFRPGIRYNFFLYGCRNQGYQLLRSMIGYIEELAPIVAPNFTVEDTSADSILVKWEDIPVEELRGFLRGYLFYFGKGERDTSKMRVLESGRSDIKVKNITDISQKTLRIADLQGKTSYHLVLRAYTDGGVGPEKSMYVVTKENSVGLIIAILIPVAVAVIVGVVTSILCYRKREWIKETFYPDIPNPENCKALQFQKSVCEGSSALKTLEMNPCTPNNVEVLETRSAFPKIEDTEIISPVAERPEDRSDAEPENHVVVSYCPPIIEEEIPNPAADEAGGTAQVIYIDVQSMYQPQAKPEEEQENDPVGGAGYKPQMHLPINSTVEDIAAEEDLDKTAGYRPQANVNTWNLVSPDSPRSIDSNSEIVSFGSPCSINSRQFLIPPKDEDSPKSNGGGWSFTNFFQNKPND
Procedure: On day 0, HepG2 were seeded at 7.5 × 10^4 cells/well in a 24-well plate and maintained at 37°C and 5% CO2 in E-MEM supplemented with 10% FBS, 1% glutamine, and 1% penicillin/streptomycin. On day 1, cells were transiently transfected with the reporter plasmid pGL4.47[luc2P/SIE/Hygro] (200 ng) (CAT#: E4041 Promega, Madison, WI, USA), a vector encoding the hLIFR (CAT# RC226327) (100 ng) and CD130 (IL6ST) (100 ng) (CAT#: RC215123, OriGene Technologies, Inc. Rockville, MD, USA), and finally a vector encoding the human RENILLA luciferase gene (pGL4.70) (100 ng) (Promega, Madison, WI, USA). On day 2, cells were exposed to the cytokine LIF (10 ng/mL) alone or in combination with BAR502 (from 0.1 to 20 μM). […] For FXR mediated transactivation, HepG2 cells were plated at 7.5 × 10^4 cells/well in a 24 well plate. Cells were transfected with 200 ng of the reporter vector p(hsp27)-TK-LUC containing a FXR response element (IR1) cloned from the promoter of heat shock protein 27 (hsp27), 100 ng of pSG5-FXR, 100 ng of pSG5-RXR, and 100 ng of pGL4.70 (Promega), a vector encoding the human Renilla gene. To perform STAT3 transactivation, HepG2 were seeded at 7.5× 10^4 cells/well in a 24-well plate. On the day-1, cells were transiently transfected with 200 ng of the reporter plasmid pGL4.47[luc2P/SIE/Hygro] […] Luminescence was measured using a Glomax 20/20 luminometer (Promega, Madison, WI, USA). […]

Question: Which results are given for `CC[C@H]1[C@@H](O)C2C3CC[C@H]([C@H](C)CCO)[C@@]3(C)CCC2[C@@]2(C)CC[C@@H](O)C[C@@H]12` (some centres unmarked) [BAR502]?
Answer: reduction of detachment and migration compared to LIF (MIA PaCa-2 cells): ≈ 40%; IC50 (hLIFR): 2730 nM
